Assay results: patent US20160002217A1, “FUNGICIDAL 3--OXADIAZOLONE DERIVATIVES” (BAYER CROPSCIENCE AG, priority 2013, published 2016)
Where two headings read alike, the source gives them in different places. Marks after values point to notes of the source that are not given here.

Key:
[1] = Measurement of log P values by HPLC on reversed phase columns (EEC directive 79/831 Annex V.A8); settings: for chromatographic logP: pH 2.7; for LogP: Table 1, compounds of formula (I), method [a]: LC-MS at pH 2.7, 0.1% formic acid in water / acetonitrile gradient
[2] = system: Phytophthora infestans; assay type: in vivo; settings: tomato plants, preventive spray, 500 ppm of active ingredient, evaluated 5 days after inoculation
[3] = pH 2.7
[4] = system: Plasmopara viticola; test: Plasmopara test (grapevines) / preventive; assay type: in vivo; settings: grapevine plants, preventive spray, 10 ppm of active ingredient, evaluated 6 days after inoculation
Description: Solvent: 24.5 parts by weight of acetone • 24.5 parts by weight of dimethylacetamide
Emulsifier: 1 part by weight of alkylaryl polyglycol ether
To produce a suitable preparation of active compound, 1 part by weight of active compound is mixed with the stated amounts of solvent and emulsifier, and the concentrate is diluted with water to the desired concentration.
To test for preventive activity, young plants are sprayed with the preparation of active compound at the stated rate of application. After the spray coating has dried on, the plants are inoculated with an aqueous spore suspension of Plasmopara viticola and then remain for 1 day in an incubation cabinet at approximately 20° C. and a relative atmospheric humidity of 100%. The plant is subsequently placed for 4 days in a greenhouse at approximately 21° C. and a relative atmospheric humidity of approximately 90%. The plants are then misted and placed for 1 day in an incubation cabinet.
The test is evaluated 6 days after the inoculation. 0% means an efficacy which corresponds to that of the untreated control, while an efficacy of 100% means that no disease is observed.

[5] = system: Pyrenophora teres; test: In vivo preventive test on Pyrenophora teres (net blotch on barley); settings: barley plants, preventive spray, 500 ppm of active ingredient, evaluated 14 days after inoculation
Description: (§1) The tested active ingredients are prepared by homogenization in a mixture of acetone/Dimethyl sulfoxide/Tween®, and then diluted with water to obtain the desired active material concentration.
The young plants of barley are treated by spraying the active ingredient prepared as described above. Control plants are treated only with an aqueous solution of acetone/Dimethyl sulfoxide/Tween®.
After 24 hours, the plants are contaminated by spraying the leaves with an aqueous suspension of Pyrenophora teres spores. The contaminated barley plants are incubated for 48 hours at 20° C. and at 100% relative humidity and then for 12 days at 20° C. and at 70-80% relative humidity.
The test is evaluated 14 days after the inoculation. 0% means an efficacy which corresponds to that of the control plants while an efficacy of 100% means that no disease is observed.

[6] = system: Septoria tritici; test: In vivo preventive test on Septoria tritici (leaf spot on wheat); settings: wheat plants, preventive spray, 500 ppm of active ingredient, evaluated 24 days after inoculation
Description: as §1
(§2) The young plants of wheat are treated by spraying the active ingredient prepared as described above. Control plants are treated only with an aqueous solution of acetone/Dimethyl sulfoxide/Tween®.
After 24 hours, the plants are contaminated by spraying the leaves with an aqueous suspension of Septoria tritici spores. The contaminated wheat plants are incubated for 72 hours at 18° C. and at 100% relative humidity and then for 21 days at 20° C. and at 90% relative humidity.
The test is evaluated 24 days after the inoculation. 0% means an efficacy which corresponds to that of the control plants while an efficacy of 100% means that no disease is observed.

[7] = system: Alternaria brassicae; test: In vivo preventive test on Alternaria brassicae (leaf spot on radish); settings: radish plants, preventive spray, 500 ppm of active ingredient, evaluated 6 days after inoculation
Description: as §1
The young plants of radish are treated by spraying the active ingredient prepared as described above. Control plants are treated only with an aqueous solution of acetone/Dimethyl sulfoxide/Tween®.
After 24 hours, the plants are contaminated by spraying the leaves with an aqueous suspension of Alternaria brassicae spores. The contaminated radish plants are incubated for 6 days at 20° C. and at 100% relative humidity.
The test is evaluated 6 days after the inoculation. 0% means an efficacy which corresponds to that of the control plants while an efficacy of 100% means that no disease is observed.

[8] = system: Puccinia recondita; test: In vivo preventive test on Puccinia recondita (brown rust on wheat); settings: wheat plants, preventive spray, 500 ppm of active ingredient, evaluated 11 days after inoculation
Description: as §1, §2
After 24 hours, the plants are contaminated by spraying the leaves with an aqueous suspension of Puccinia recondita spores. The contaminated wheat plants are incubated for 24 hours at 20° C. and at 100% relative humidity and then for 10 days at 20° C. and at 70-80% relative humidity.
(§3) The test is evaluated 11 days after the inoculation. 0% means an efficacy which corresponds to that of the control plants while an efficacy of 100% means that no disease is observed.

[9] = system: Uromyces appendiculatus; test: In vivo preventive test on Uromyces appendiculatus (bean rust); settings: bean plants, preventive spray, 500 ppm of active ingredient, evaluated 11 days after inoculation
Description: as §1
The young plants of bean are treated by spraying the active ingredient prepared as described above. Control plants are treated only with an aqueous solution of acetone/Dimethyl sulfoxide/Tween®.
After 24 hours, the plants are contaminated by spraying the leaves with an aqueous suspension of Uromyces appendiculatus spores. The contaminated bean plants are incubated for 24 hours at 20° C. and at 100% relative humidity and then for 10 days at 20° C. and at 70-80% relative humidity.
as §3

[10] = system: Pyricularia oryzae; assay type: in vivo; settings: rice plants, preventive spray, 500 ppm of active ingredient, evaluated 6 days after inoculation

| Compound | chromatographic logP [1] | % efficacy [2] [%] | LogP [3] | other results |
| --- | --- | --- | --- | --- |
| CC(C)(C)OC(=O)Nc1cccc(CO/N=C(\C#N)c2ccccn2)n1 [Example IV-02, tert-butyl {6-[({[(Z)-cyano(pyridin-2-yl)methylene]amino}oxy)methyl]pyridin-2-yl}carbamate] | 3.5 | – | – | – |
| Cn1c(C(=NOCc2cccc(NC(=O)OC(C)(C)C)n2)c2cccnc2)noc1=O [Example 33, tert-butyl {6-[({[(4-methyl-5-oxo-4,5-dihydro-1,2,4-oxadiazol-3-yl)(pyridin-3-yl)methylene]amino}oxy)methyl]pyridin-2-yl}carbamate] | 2.75 | 78 | – | – |
| CCCCCOC(=O)Nc1cccc(CON=C(c2ccncc2)c2noc(=O)n2C)n1 [Example 44] | – | 98 | – | LogP [1]: 3.29^[a] |
| C#CCCOC(=O)Nc1cccc(CON=C(c2ccccn2)c2nc(=O)on2CC)n1 [Example 19] | – | – | – | LogP [1]: 2.35^[a] |
| C#CCCOC(=O)Nc1cccc(CO/N=C(/c2ccccn2)c2nc(=O)on2C)n1 [Example 17, But-3-yn-1-yl {6-[({[(Z)-(2-methyl-5-oxo-2,5-dihydro-1,2,4-oxadiazol-3-yl)(pyridine-2-yl)methylene]amino}oxy)methyl]pyridin-2-yl}carbamate] | 2.1 | – | – | – |
| Cn1oc(=O)nc1/C(=N\OCc1cccc(N)n1)c1ccccn1 [Example 9, 3-[(Z)-{[(6-aminopyridin-2-yl)methoxy]imino}(pyridine-2-yl)methyl]-2-methyl-1,2,4-oxadiazol-5(2H)-one] | 0.41 | – | – | – |
| CC(Oc1ccccc1)C(=O)Nc1nc(CON=C(c2cccs2)c2noc(=O)n2C)cs1 (stereo not drawn) [Example 80] | – | 100 | 3.42^[a] | % efficacy [4]: 100% |
| Cn1c(C(=NOCc2cccc(NC(=O)OC(C)(C)C)n2)c2ccccn2)noc1=O [Example 13] | – | 98 | 3.17^[a] | % efficacy [5]: 77%; % efficacy [6]: 75%; % efficacy [7]: 91% |
| Cn1c(C(=NOCc2csc(NC(=O)C3CCc4ccccc4O3)n2)c2ccsc2)noc1=O (stereo not drawn) [Example 69] | – | 75 | 3.62^[a] | % efficacy [4]: 92% |
| Cn1oc(=O)nc1/C(=N\OCc1cccc(NC(=O)OC(C)(C)C)n1)c1ccccn1 [Example 22, tert-butyl {6-[({[(Z)-(2-methyl-5-oxo-2,5-dihydro-1,2,4-oxadiazol-3-yl)(pyridine-2-yl)methylene]amino}oxy)methyl]pyridin-2-yl}carbamate] | 2.68 | 99 | – | % efficacy [8]: 88%; % efficacy [9]: 100%; % efficacy [10]: 75% |
| Cn1c(C(=NOCc2csc(NC(=O)OC(C)(C)C)n2)c2ccsc2)noc1=O [Example 16] | – | 100 | 3.39^[a] | % efficacy [4]: 99% |
| Cn1c(C(=NOCc2csc(N)n2)c2ccsc2)noc1=O [Example 23] | – | 98 | – | LogP [1]: 1.35^[a] |
| CCCCCC(=O)Nc1cccc(CON=C(c2ccncc2)c2noc(=O)n2C)n1 [Example 84] | – | 100 | 2.71^[a] | – |
| CCCCOC(=O)Nc1cccc(CON=C(c2ncccn2)c2noc(=O)n2C)n1 [Example 53] | – | 85 | 2.68^[a] | – |
| Cn1c(C(=NOCc2csc(NC(=O)COc3ccccc3)n2)c2ccsc2)noc1=O [Example 67] | – | 98 | 3.22^[a] | – |
| CC(C)(C)OC(=O)Nc1cccc(CON=C(C#N)c2cccnc2)n1 [Example IV-07, tert-butyl {6-[({[cyano(pyridin-3-yl)methylene]amino}oxy)methyl]pyridin-2-yl}carbamate] | 3.19 | – | – | – |
| CCCCOC(=O)Nc1cccc(CON=C(c2ccccn2)c2noc(=O)n2C)n1 [Example 3] | – | 100 | 3.25^[a] | – |
| CC(C)(C)OC(=O)Nc1cccc(CON=C(C(N)=NO)c2cccnc2)n1 [Example V-03, tert-butyl {6-[({[2-amino-2-(hydroxyimino)-1-(pyridin-3-yl)ethylidene]amino}oxy)methyl]pyridin-2-yl}carbamate] | 1.81 | – | – | – |
| CCCCCC(=O)Nc1cccc(CON=C(c2ncccn2)c2noc(=O)n2C)n1 [Example 60] | – | 90 | 2.61^[a] | – |
| CCCCCOC(=O)Nc1cccc(CON=C(c2ccccn2)c2noc(=O)n2C)n1 [Example 12] | – | 85 | 3.67^[a] | – |
| C#CCCOC(=O)Nc1cccc(CON=C(c2ccncc2)c2noc(=O)n2C)n1 [Example 45] | – | 100 | 2.21^[a] | % efficacy [4]: 91% |
| CC(C)(C)OC(=O)Nc1cccc(CON=C(c2cccnc2)c2noc(=O)[nH]2)n1 [Example 32, tert-butyl {6-[({[(5-oxo-4,5-dihydro-1,2,4-oxadiazol-3-yl)(pyridin-3-yl)methylene]amino}oxy)methyl]pyridin-2-yl}carbamate] | 2.59 | – | – | – |
| CCCCCOC(=O)Nc1cccc(CON=C(c2ncccn2)c2noc(=O)n2C)n1 [Example 52] | – | 88 | 3.06^[a] | – |
| CN(O)C(=N)/C(=N\OCc1cccc(NC(=O)OC(C)(C)C)n1)c1ccccn1 [Example VI-01, tert-butyl (6-{[({(1Z)-2-[hydroxy(methyl)amino]-2-imino-1-(pyridin-2-yl)ethylidene}amino)oxy]methyl}pyridin-2-yl)carbamate] | 1.54 | – | – | – |
| CCCCCOC(=O)Nc1cccc(CON=C(c2cccnc2)c2noc(=O)n2C)n1 [Example 49] | – | 99 | 3.37^[a] | – |
| CCCCOC(=O)Nc1cccc(CON=C(c2ccncc2)c2noc(=O)n2C)n1 [Example 82] | – | 100 | 2.80^[a] | – |
| CCCCCC(=O)Nc1cccc(CON=C(c2ccccn2)c2noc(=O)n2C)n1 [Example 4] | – | 88 | 3.13^[a] | – |
| CCCCC(=O)Nc1cccc(CON=C(c2ccncc2)c2noc(=O)n2C)n1 [Example 83] | – | 100 | 2.34^[a] | – |
| CCCCCC(=O)Nc1cccc(CON=C(c2cccnc2)c2nc(=O)on2C)n1 [Example 63] | – | 75 | 2.39^[a] | – |
